According to patent publication US20040023862A1, “Uses of bombesin receptor 3” (SmithKline Beedham p. l. c., priority 2000, published 2004):
Non-standard residues stand in square brackets, D forms with d. Residues, ends and D or L forms follow the SMILES beside them. Nle = CCCC[C@H](N)C(=O)O; βAla = NCCC(=O)O

Experiments:
BB1 receptor = BB1 receptor (Homo sapiens, UniProt P28336); details: from Smart (1998); cited from earlier work
BB2 receptor = BB2 receptor (Homo sapiens, UniProt P30550); details: from Smart (1998); cited from earlier work
Sequence of BB2 receptor (P30550 whole entry): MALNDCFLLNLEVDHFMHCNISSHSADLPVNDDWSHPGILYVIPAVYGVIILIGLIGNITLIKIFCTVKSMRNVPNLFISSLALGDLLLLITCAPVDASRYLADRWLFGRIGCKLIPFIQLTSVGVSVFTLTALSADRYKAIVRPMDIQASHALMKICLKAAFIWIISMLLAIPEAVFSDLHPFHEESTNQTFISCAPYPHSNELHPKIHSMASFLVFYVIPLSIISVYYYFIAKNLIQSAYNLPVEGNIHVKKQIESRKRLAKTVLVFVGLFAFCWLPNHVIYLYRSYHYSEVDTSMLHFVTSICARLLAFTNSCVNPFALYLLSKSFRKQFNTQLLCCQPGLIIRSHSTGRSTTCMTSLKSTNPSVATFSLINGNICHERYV

[1] = molecular target: T1, endogenous human BRS-3 in NCI-N417 cells (Homo sapiens, UniProt P32247); test: Agonist pharmacology, FLIPR intracellular calcium (Fluo-3AM) in NCI-N417 cells; format: cell-based
T1 construct: Agonist Pharmacology at the Endogenous Human BRS-3 in NCI-N417 Cells; endogenous in cells; host or cells: NCI-N417 cells
T1 sequence (P32247 1-399): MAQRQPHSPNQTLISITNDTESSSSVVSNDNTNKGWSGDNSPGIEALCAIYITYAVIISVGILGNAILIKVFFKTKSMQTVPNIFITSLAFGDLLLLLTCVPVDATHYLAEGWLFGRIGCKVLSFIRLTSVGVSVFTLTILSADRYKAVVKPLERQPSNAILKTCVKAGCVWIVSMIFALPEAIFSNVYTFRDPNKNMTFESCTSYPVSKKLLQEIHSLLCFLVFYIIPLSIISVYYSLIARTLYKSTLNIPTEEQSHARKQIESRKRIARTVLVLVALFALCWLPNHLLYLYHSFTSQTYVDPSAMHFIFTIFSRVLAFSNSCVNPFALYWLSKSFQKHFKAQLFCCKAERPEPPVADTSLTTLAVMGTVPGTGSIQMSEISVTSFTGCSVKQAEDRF
Experimental: Agonist Pharmacology at the Endogenous Human BRS-3 in NCI-N417 Cells
NCI-N417 cells were seeded into Costar 96 well black walled plates (30,000 cells per well), cultured overnight in RPMI 1640 medium containing 10% foetal calf serum and 1% L-glutamine, and then loaded with the cytoplasmic calcium indicator Fluo-3AM (4 μM) in the presence of 2.5 mM probenecid at 37° C. for 60 min. The cells were then washed 4× with, and finally resuspended in, Tyrode's medium containing 2.5 mM probenecid. Fluorescence was then monitored using a FLIPR (λEX=488 nm, λEM=540 nm) before and after the addition of various ligands (10 pM-10 μM), as described previously (Smart et al (1999). Br. J. Pharmacol. 128:1-4).

[2] = test system: organotypic hippocampal slice cultures; test: Oxygen/glucose deprivation model in organotypic hippocampal slice cultures; format: cell-based
hippocampal neurones = test: Neurotoxicity assay (MTT cell survival) in primary hippocampal cell culture; format: cell-based, rat; details: sub-maximal neurotoxicity by Mg-free Locke's solution with glycine and histamine, MTT 24 h after insult
Experimental: Hippocampi were isolated from embryonic Sprague Dawley rats (gestational age 17.5 days; Charles River), incubated with 0.08% (w/v) trypsin, and dissociated in Neurobasal medium containing 10% heat-inactivated fetal calf serum (Skaper et al.(1990) Methods in Neurosciences, Vol. 2 (Conn P. M., ed), pp. 17-33 Academic Press, San Diego). Cells were pelleted by centrifugation (200 g, 5 min) and resuspended in Neurobasal medium containing B27 supplements (with antioxidants), 25 μM glutamate, 1 mM sodium pyruvate, 2 mM L-glutamine, 50 U/ml penicillin, and 50 μg/ml streptomycin. The cell suspension was plated onto poly-D-lysine (10 μg/ml) coated 48-well culture plates (Nunc), at a density of 4.5×10^4 cells per cm^2. Cultures were maintained at 37° C. in a humidified atmosphere of 5% CO2-95% air. […]
Cultures were washed once with Locke's solution (pH 7.0-7.4) (Skaper et al. (1990) supra) with or without 1 mM magnesium chloride (MgCl2). […] Cell survival was quantified 24 h after the insult by a colorimetric reaction with 3-(4,5-dimethylthiazol-2-yl)-2,5-diphenyltetrazolium bromide (MTT) (Mosmann (1983) J. Immunol. Methods 65:55-63; Manthorpe et al. (1986) Dev. Brain Res. 25:191-198; Skaper et al., (1990) supra). Absolute MTT values obtained were normalized and expressed as a percentage of sham-treated sister cultures (defined as 100%).

cerebellar granule cells = test: Glutamate-induced excitotoxicity in cerebellar granule cells; format: cell-based
From the text: However, in the cerebellar granule cells [D-Phe^6, βAla^11, Phe^13, Nle^14]Bombesin(6-14) had no effect on glutamate-induced excitotoxicity.

BRS3 = molecular target: T2, BRS3 (Homo sapiens, UniProt P32247); details: background statement, in words; cited from earlier work
T2 sequence (P32247 1-399): T1 sequence (P32247 1-399)

Sequence of BB1 receptor (P28336 whole entry): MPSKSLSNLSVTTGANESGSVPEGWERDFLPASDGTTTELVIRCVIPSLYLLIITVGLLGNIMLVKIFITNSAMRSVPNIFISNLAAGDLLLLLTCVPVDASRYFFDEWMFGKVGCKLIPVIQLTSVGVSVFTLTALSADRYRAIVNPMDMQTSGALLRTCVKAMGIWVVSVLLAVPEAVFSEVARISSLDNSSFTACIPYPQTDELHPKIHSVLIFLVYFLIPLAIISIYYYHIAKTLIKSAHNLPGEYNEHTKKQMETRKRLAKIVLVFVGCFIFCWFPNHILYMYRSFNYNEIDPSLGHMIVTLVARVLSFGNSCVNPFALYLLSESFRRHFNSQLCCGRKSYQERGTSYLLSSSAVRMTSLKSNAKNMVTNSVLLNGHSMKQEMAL

SMILES: CC(C)c1cccc(C(C)C)c1NC(=O)N[C@@](C)(Cc1c[nH]c2ccccc12)C(=O)NCC1(c2ccccn2)CCCCC1 [PD 165929]
- affinity at the BB1 receptor (BB1 receptor): 7.6 nM
- activity at the BB2 receptor (BB2 receptor): inactive

SMILES: CCCC[C@H](NC(=O)[C@H](Cc1ccccc1)NC(=O)[C@H](Cc1c[nH]cn1)NC(=O)CCNC(=O)[C@@H](NC(=O)[C@H](C)NC(=O)[C@H](Cc1c[nH]c2ccccc12)NC(=O)[C@H](CCC(N)=O)NC(=O)[C@H](N)Cc1ccccc1)C(C)C)C(N)=O [[D-Phe^6, βAla^11, Phe^13, Nle^14]Bombesin(6-14)] (H-[dF]QWAV[βAla]HF[Nle]-NH2; N-terminus and C-terminus assumed)
- EC50 [1]: 13.2 nM
- Efficacy ([1]; calcium mobilisation, FLIPR, NCI-N417 cells, efficacy in words): full
- neuroprotection [2]: neuroprotective
- pEC50 for inhibition of damage (hippocampal neurones): 7.3±0.1
- effect on glutamate-induced excitotoxicity (cerebellar granule cells): no effect
- affinity at BRS3 (BRS3): low nM affinity
